{"source": "paper PMC7347570", "about": "“A new functional JAZ degron sequence in strawberry JAZ1 revealed by structural and interaction studies on the COI1–JA-Ile/COR–JAZs complexes” (Scientific Reports, 2020)", "assay_in_all_cases": "yeast two-hybrid (GAL4), COR-dependent growth", "type_in_all_cases": "cell-based", "key": {"AtCOI1 with AtJAZ1": {"molecular_target": "T1, AtCOI1 with AtJAZ1 (Arabidopsis thaliana, UniProt O04197+Q9LMA8)", "T1 construct": "gene COI1; Saccharomyces cerevisiae AH109; degron LPIARR", "T1 sequence (Q9LMA8 whole entry)": "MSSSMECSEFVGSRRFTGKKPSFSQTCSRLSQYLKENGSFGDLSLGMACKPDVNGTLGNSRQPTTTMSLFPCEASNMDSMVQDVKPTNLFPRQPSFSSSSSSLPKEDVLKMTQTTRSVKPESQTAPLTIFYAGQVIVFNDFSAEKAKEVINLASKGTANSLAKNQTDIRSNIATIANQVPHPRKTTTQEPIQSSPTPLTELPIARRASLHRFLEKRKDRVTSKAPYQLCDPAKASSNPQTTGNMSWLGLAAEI", "T1 sequence (O04197 whole entry)": "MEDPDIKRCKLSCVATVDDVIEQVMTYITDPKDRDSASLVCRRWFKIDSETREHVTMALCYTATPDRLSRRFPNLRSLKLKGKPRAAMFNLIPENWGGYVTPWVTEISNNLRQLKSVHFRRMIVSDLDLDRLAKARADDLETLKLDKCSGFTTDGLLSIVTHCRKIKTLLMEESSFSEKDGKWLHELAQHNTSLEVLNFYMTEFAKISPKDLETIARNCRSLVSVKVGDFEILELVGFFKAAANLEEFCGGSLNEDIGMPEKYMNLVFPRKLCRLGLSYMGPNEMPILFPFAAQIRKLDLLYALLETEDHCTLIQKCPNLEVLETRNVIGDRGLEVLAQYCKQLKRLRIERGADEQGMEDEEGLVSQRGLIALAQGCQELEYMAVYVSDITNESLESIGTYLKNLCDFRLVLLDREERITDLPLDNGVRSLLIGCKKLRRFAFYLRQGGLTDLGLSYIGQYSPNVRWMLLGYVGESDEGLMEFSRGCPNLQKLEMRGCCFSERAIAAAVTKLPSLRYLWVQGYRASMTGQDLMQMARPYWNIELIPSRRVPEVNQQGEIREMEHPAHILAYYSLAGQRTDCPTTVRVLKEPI", "conditions": "50 µM COR; 28 °C, 5 days; JAZ co-receptor"}, "FaCOI1–FaJAZ10": {"molecular_target": "T2, FaCOI1–FaJAZ10 (Fragaria x ananassa, UniProt A0A290U3W5+A0A290U478)", "T2 construct": "gene COI1; Saccharomyces cerevisiae AH109; degron LPIARR", "T2 sequence (A0A290U3W5 entry or part of it)": "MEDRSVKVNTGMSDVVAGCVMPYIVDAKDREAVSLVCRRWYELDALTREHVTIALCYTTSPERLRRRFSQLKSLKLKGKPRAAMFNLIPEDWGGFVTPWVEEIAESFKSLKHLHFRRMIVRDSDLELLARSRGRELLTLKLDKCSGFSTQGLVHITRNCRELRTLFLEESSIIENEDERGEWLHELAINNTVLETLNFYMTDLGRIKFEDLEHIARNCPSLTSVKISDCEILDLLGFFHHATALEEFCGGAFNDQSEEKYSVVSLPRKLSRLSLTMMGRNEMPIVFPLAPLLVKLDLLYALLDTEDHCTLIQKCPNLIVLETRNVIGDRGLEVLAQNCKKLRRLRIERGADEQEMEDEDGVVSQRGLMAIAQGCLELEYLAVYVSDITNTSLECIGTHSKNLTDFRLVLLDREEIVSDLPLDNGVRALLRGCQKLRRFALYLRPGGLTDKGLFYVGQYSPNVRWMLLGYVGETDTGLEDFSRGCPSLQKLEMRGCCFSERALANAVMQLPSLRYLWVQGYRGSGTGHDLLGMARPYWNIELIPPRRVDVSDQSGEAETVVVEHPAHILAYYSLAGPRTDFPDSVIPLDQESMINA", "T2 sequence (A0A290U478 entry or part of it)": "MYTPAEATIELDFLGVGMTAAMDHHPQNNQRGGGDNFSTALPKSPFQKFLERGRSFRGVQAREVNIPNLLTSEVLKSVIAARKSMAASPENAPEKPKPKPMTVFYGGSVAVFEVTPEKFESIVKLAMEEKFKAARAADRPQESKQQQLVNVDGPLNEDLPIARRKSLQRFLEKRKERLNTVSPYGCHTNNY", "conditions": "50 µM COR; 28 °C, 5 days; SD-Leu-Trp-His selection; JAZ co-receptor"}, "AtCOI1–FaJAZ10": {"molecular_target": "T3, AtCOI1–FaJAZ10 (Arabidopsis thaliana; Fragaria x ananassa, UniProt A0A290U478+O04197)", "T3 construct": "gene COI1; mixed-species complex; Saccharomyces cerevisiae AH109", "T3 sequence (O04197 whole entry)": "as the sequence (O04197 whole entry) above", "T3 sequence (A0A290U478 entry or part of it)": "as the sequence (A0A290U478 entry or part of it) above", "conditions": "50 µM COR; 28 °C, 5 days; JAZ co-receptor"}, "AtCOI1–FaJAZ1": {"molecular_target": "T4, AtCOI1–FaJAZ1 (Arabidopsis thaliana; Fragaria x ananassa, UniProt A0A290U0M9+O04197)", "T4 construct": "gene COI1; mixed-species complex; Saccharomyces cerevisiae AH109", "T4 sequence (A0A290U0M9 entry or part of it)": "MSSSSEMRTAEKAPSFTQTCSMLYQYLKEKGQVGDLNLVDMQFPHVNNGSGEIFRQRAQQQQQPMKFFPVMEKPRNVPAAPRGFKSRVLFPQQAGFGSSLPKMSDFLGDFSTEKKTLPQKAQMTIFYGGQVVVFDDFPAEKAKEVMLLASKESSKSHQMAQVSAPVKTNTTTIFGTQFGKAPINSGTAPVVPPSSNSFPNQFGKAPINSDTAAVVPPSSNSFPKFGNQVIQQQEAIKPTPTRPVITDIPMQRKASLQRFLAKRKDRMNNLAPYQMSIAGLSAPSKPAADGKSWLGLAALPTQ", "T4 sequence (O04197 whole entry)": "as the sequence (O04197 whole entry) above", "conditions": "50 µM COR; 28 °C, 5 days; JAZ co-receptor"}, "FaCOI1–FaJAZ1": {"molecular_target": "T5, FaCOI1–FaJAZ1 (Fragaria x ananassa, UniProt A0A290U0M9+A0A290U3W5)", "T5 construct": "gene COI1; Saccharomyces cerevisiae AH109; native degron IPMQRK", "T5 sequence (A0A290U0M9 entry or part of it)": "as the sequence (A0A290U0M9 entry or part of it) above", "T5 sequence (A0A290U3W5 entry or part of it)": "as the sequence (A0A290U3W5 entry or part of it) above", "conditions": "50 µM COR; 28 °C, 5 days; growth on SD-Leu-Trp-His and SD-Leu-Trp-His-Ade; JAZ co-receptor"}, "AtJAZ9 and FaCOI1": {"molecular_target": "T6, AtJAZ9 and FaCOI1 (Fragaria x ananassa; Arabidopsis thaliana, UniProt A0A290U3W5+Q8W4J8)", "T6 construct": "gene COI1; mixed-species complex; Saccharomyces cerevisiae AH109", "T6 sequence (Q8W4J8 whole entry)": "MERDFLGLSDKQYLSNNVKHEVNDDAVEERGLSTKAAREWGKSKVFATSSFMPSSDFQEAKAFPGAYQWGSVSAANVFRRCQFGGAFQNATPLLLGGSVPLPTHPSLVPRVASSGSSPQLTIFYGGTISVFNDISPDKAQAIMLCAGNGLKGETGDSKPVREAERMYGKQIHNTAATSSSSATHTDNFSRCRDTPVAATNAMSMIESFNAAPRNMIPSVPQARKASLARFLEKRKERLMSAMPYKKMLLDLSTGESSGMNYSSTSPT", "T6 sequence (A0A290U3W5 entry or part of it)": "as the sequence (A0A290U3W5 entry or part of it) above", "conditions": "50 µM COR; 28 °C, 5 days; JAZ co-receptor"}, "AtCOI1 with AtJAZ9": {"molecular_target": "T7, AtCOI1 with AtJAZ9 (Arabidopsis thaliana, UniProt O04197+Q8W4J8)", "T7 construct": "gene COI1; Saccharomyces cerevisiae AH109; degron VPQARK", "T7 sequence (O04197 whole entry)": "as the sequence (O04197 whole entry) above", "T7 sequence (Q8W4J8 whole entry)": "as the sequence (Q8W4J8 whole entry) above", "conditions": "50 µM COR; 28 °C, 5 days; JAZ co-receptor"}}, "data": [{"smiles": "CC[C@H]1C=C(C(=O)N[C@@]2(C(=O)O)C[C@@H]2CC)[C@H]2CCC(=O)[C@H]2C1", "note": "[coronatine]", "values": [{"measurement": "yeast two-hybrid (GAL4), COR-dependent growth", "setting": "AtCOI1 with AtJAZ1", "result": "AtJAZ1 and AtJAZ9 interacted with AtCOI1 which was observed by colony growth"}, {"measurement": "yeast two-hybrid (GAL4), COR-dependent growth", "setting": "FaCOI1–FaJAZ10", "result": "FaJAZ1 and FaJAZ10 interacted with FaCOI1 in a COR-dependent manner"}, {"measurement": "yeast two-hybrid (GAL4), COR-dependent growth", "setting": "AtCOI1–FaJAZ10", "result": "both FaJAZ1 and FaJAZ10 interacted with AtCOI1 in restrictive media and supplemented with COR"}, {"measurement": "yeast two-hybrid (GAL4), COR-dependent growth", "setting": "AtCOI1–FaJAZ1", "result": "both FaJAZ1 and FaJAZ10 interacted with AtCOI1 in restrictive media and supplemented with COR"}, {"measurement": "yeast two-hybrid (GAL4), COR-dependent growth", "setting": "FaCOI1–FaJAZ1", "result": "FaJAZ1 and FaJAZ10 interacted with FaCOI1 in a COR-dependent manner"}, {"measurement": "yeast two-hybrid (GAL4), COR-dependent growth", "setting": "AtJAZ9 and FaCOI1", "result": "only a positive interaction between AtJAZ9 and FaCOI1 promoted by COR was observed"}, {"measurement": "yeast two-hybrid (GAL4), COR-dependent growth", "setting": "AtCOI1 with AtJAZ9", "result": "AtJAZ1 and AtJAZ9 interacted with AtCOI1 which was observed by colony growth"}]}]}
